Legend:
[1] = tested on: mouse-derived macrophage-like cell line (RAW264); assay: TNF-α production-inducing activity in cells; format: cell-based; conditions: 24 hours
Description: A TNF-α production-inducing activity in a mouse-derived macrophage-like cell line (RAW264, provided: RIKEN BioResource Research Center) was investigated. Using, as test samples, AU-1833C (synthesized in Example 1), lentinan (product name: Lentinan, manufactured by FUJIFILM Wako Pure Chemical Corporation) and fucoidan (product name: Fucoidan Fucus vesiculosus-derived, manufactured by Sigma-Aldrich Co. LLC), test sample solutions were prepared so that the final concentrations of the test samples were 50, 100, and 200 μg/mL. First, all test samples were dissolved in dimethylsulfoxide (DMSO) so as to have a 1,000-fold concentration of the final concentration, and then 100-fold dilution was carried out with deionized water thereby to prepare test sample solutions having a 10-fold concentration (including 1% DMSO) of the final concentrations. […] A ratio of a TNF-α concentration in each test sample group relative to a TNF-α concentration in the non-treated group was calculated from the measured TNF-α concentrations and defined as the TNF-α production-inducing activity.

[2] = tested on: peritoneal exudate cell (PEC) count; assay: PEC count in mice after intraperitoneal administration; format: in vivo, Slc: ddY mice; conditions: intraperitoneal injection of 200 μL of 10 mg/mL, 22 hours after administration, compared with control non-treated mice (FIG. 4(a))
Description: The test sample AU-1833C was dissolved in DMSO so as to be 50 mg/mL and then diluted five-fold with saline (product name: Otsuka normal saline, manufactured by Otsuka Pharmaceutical Co., Ltd.) to prepare a test sample solution of 10 mg/mL (including 20% DMSO). The animals used were Slc: ddY mice (female, 6-week old) and grouped as follows. The mice purchased at the age of 5 weeks were acclimated for 5 days under a condition of free access to water and feed (regular diet (product name: CE-2, manufactured by CLEA Japan, Inc.)). […] The mice after a lapse of 22 hours from administration were sacrificed under isoflurane anesthesia, 5 mL of saline was intraperitoneally injected, the abdominal area was rubbed about 10 times, and then intraperitoneal cells were collected by collecting the saline from the abdominal cavity. Using a portion of the collected saline and a Turk's solution (product name: Turk's solution, manufactured by Wako Pure Chemical Industries, Ltd.), a concentration of PEC (cells/mL), intraperitoneally exudated nucleated cells such as white blood cells, was measured. The measured PEC concentration was multiplied by the amount of saline intraperitoneally injected (5 mL) to calculate a PEC count per mouse (cells/mouse).

TNF-α production of PEC = assay: Amount of induced TNF-α production of PEC from treated mice when treated with LPS; format: in vivo, Slc: ddY mice; conditions: PEC collected 22 hours after intraperitoneal administration, LPS 100 ng/mL for 3 hours
Description: The test sample AU-1833C was dissolved in DMSO so as to be 50 mg/mL and then diluted five-fold with saline (product name: Otsuka normal saline, manufactured by Otsuka Pharmaceutical Co., Ltd.) to prepare a test sample solution of 10 mg/mL (including 20% DMSO).
The animals used were Slc: ddY mice (female, 6-week old) and grouped as follows.
The mice purchased at the age of 5 weeks were acclimated for 5 days under a condition of free access to water and feed (regular diet (product name: CE-2, manufactured by CLEA Japan, Inc.)). Body weights of the mice after acclimation at the age of 6 weeks were measured and the mice were grouped based on the measured values so that there was no difference in the body weight among the groups. 200 μL of the test sample solutions or 20% DMSO saline as the non-treated group was respectively administered to the mice by intraperitoneal injection. […] Using a portion of the collected saline and a Turk's solution (product name: Turk's solution, manufactured by Wako Pure Chemical Industries, Ltd.), a concentration of PEC (cells/mL), intraperitoneally exudated nucleated cells such as white blood cells, was measured. The measured PEC concentration was multiplied by the amount of saline intraperitoneally injected (5 mL) to calculate a PEC count per mouse (cells/mouse). […]

O=C1OCCCCCCOC(=O)c2ccccc2C(=O)OCCCCCCOC(=O)c2ccccc21 [AU-1833C, 7,8,9,10,11,12,19,20,21,22,23,24-dodecahydro-dibenzo[1,6,13,18]-tetraoxacyclooctadecine-2,5,14,17-tetrone]
TNF-α production-inducing activity (ratio of TNF-α concentration relative to non-treated group) ([1]; RAW264 cells, 50, 100 and 200 μg/mL, ELISA, compared with control non-treated group (FIG. 3)): significantly higher than that of the control non-treated group
TNF-α production-inducing activity compared with lentinan and fucoidan at the same concentration ([1]; RAW264 cells, each of 50, 100 and 200 μg/mL, ELISA (FIG. 3)): significantly higher than those of lentinan and fucoidan at the same concentration
PEC counts [2]: significantly higher PEC counts
TNF-α production amount per cell in PEC (TNF-α production of PEC; compared with control non-treated mice (FIG. 4(b))): significantly higher TNF-α production amount per cell in PEC
PEC-derived TNF-α production amount per mouse (TNF-α production of PEC; compared with control non-treated mice (FIG. 4(c))): significantly higher PEC-derived TNF-α production amount per mouse

From patent US20220151985A1, “IMMUNOSTIMULATOR AND FOOD OR BEVERAGE FOR IMMUNOSTIMULATION” (AMINO UP CO., LTD., priority 2019, published 2022)
